Turning to `O=C(NO)c1ccc(CNC(=O)c2[nH]c(-c3ccc(O)cc3)cc2-c2ccsc2)cc1`, the melting point (commonly the temperature of the solid-liquid transition) is 121 to 122 °C.

The compound `CC(=O)NCc1ccc2c(c1)CN(C1CCC(=O)NC1=O)C2=O` (configuration not stated) returned a melting point of 183 to 185 °C.

Take `COc1ccc(S(=O)(=O)NCc2ccco2)c2cc(C(C)=O)oc12`: the melting point was 182 to 184 °C.

As to `COC(=O)c1c(N(C)C(C)=O)cc(C)cc1N(C)C(C)=O`, the melting point was 163 to 164 °C.

`COc1ccc2c(c1)c(OC(C)C)c(C(N)=O)n2C` gave a melting point of 147 to 149 °C.

As to `COC1(c2cc(F)cc(OCc3nc(-c4ccc(F)cc4)c(-c4ccc(S(N)(=O)=O)cc4)o3)c2)CCOCC1`, the melting point lay in the range of 70 to 72 °C.

Regarding `O=C(CCc1nnc(-c2ccc3c(c2)CCO3)o1)c1cccs1`, the melting point is 151 to 152 °C.

The compound `CCCCc1c(OC(=O)C(C)(C)C)n(-c2ccc(OC(C)=O)cc2)n(-c2ccccc2)c1=O` displayed a melting point of 151 to 158 °C.

Regarding `COC1C(O)C(CO)OC1n1cc(C(F)(F)F)c(=O)[nH]c1=O` (configuration not stated), the melting point is 192 to 194 °C.

In turn, `COC(=O)c1cncn1C1c2ccsc2CC1(C)C` (configuration not stated) returned a melting point of 62 to 63 °C.

Turning to `CCCC(=O)Nc1cccc(C2(c3cc(C(=O)CC)n(CC)c3)N=C(N)N(C)C2=O)c1` (configuration not stated), the melting point lay in the range of 201 to 205 °C.

In the case of `COc1ccc(C2(O)OC(=O)C(c3ccc4nsnc4c3)=C2Cc2ccccc2)cc1` (configuration not stated), the melting point lay in the range of 40 to 41 °C.

In the case of `CCOC(=O)c1c2n(c3c(F)c(F)c(F)cc3c1=O)C(C)S2` (configuration not stated), the melting point lay in the range of 206 to 210 °C.

Regarding `Cc1cccc(-c2n[nH]cc2-c2ccc(F)c(-c3csc(C(C)(C)O)n3)c2)n1`, the melting point lay within 78 to 80 °C.

`COC(=O)c1cccc2c(C#N)c[nH]c12` displayed a melting point of 212 to 214 °C.

On to `Cc1ccc(Sc2cncc3sc(C=NOCC(N)=O)cc23)cc1`, for which the melting point is 152 to 156 °C.

For the compound `c1ccc(-c2csc(-c3cnn4cccnc34)c2)cc1`, the melting point is 72 to 72.5 °C.

The compound `CN(CCc1ccc([N+](=O)[O-])cc1)C1Cc2ccc([N+](=O)[O-])cc2C1` (configuration not stated) gave a melting point of 138 to 141 °C.

Consider `CCC(C(C)=CC(CNC(=O)C1=NNC(=O)CC1)=NO)[N+](=O)[O-]` (configuration not stated), for which the melting point fell in the range of 129 to 130 °C.

In turn, `CC(=O)Nc1nc2c(Oc3cc(-c4ccc(C(F)(F)F)cc4NCc4cncn4C)ncn3)cccc2s1` gave a melting point of 263 to 265 °C.

The compound `O=C(Nc1ccccc1)ONC1=Nc2ccc(Cl)cc2C(c2ccccc2F)=NC1` had a melting point of 126 to 128 °C.

`COc1ccc(C(=O)c2cccnc2)cc1[N+](=O)[O-]` yielded a melting point of 86 to 88 °C.

`CN1C(=O)CC2(Cc3cc4ccccc4n3C2)C1=O` (configuration not stated): the melting point lay within 154 to 156 °C.

Turning to `CC(C)c1cccc(C(C)C)c1NC(=O)c1ccccc1N`, the melting point lay in the range of 207 to 209 °C.

With `Cc1ccc(-c2ccn(C(C)C(=O)N(C)C)n2)cc1` (configuration not stated), the melting point lay in the range of 79 to 82 °C.

As for `Cc1cnc2n1-c1sc(CCCO)cc1C(c1ccccc1Cl)=NC2`, the melting point fell in the range of 131 to 134 °C.

Compound `COC(=O)C1=C(O)c2ccccc2S(=O)(=O)N1` yielded a melting point of 173 to 175 °C.

The compound `COc1cc(NC(C)=O)c(OC)cc1C#N` showed a melting point of 165 to 168 °C.

The compound `COc1cc(CO)c(N)c(OC)c1OC` returned a melting point of 56 to 58 °C.

Turning to `Nc1nc2c(ncn2OCCCP(=O)(O)O)c(=O)[nH]1`, the melting point was > 300 °C.

`NNC(=O)CCc1csc(NC(N)=NCC(F)(F)F)n1` showed a melting point of 125 to 126 °C.

Take `CC(C)(C)OC(=O)Nc1cccc(-c2noc(CCC(=O)O)n2)c1`: the melting point is 143 to 144 °C.

With `CCCCC(Cc1ccc(OCCNC(=O)c2ccc(N3CCCCC3)cc2)cc1)C(=O)O` (configuration not stated), the melting point fell in the range of 112 to 114 °C.

For `Cc1ccc(C(=O)c2ccc(F)cc2C)c(F)c1`, the melting point is 29 to 31 °C.

In turn, `CNC1C=CC(C(C)C)C2CNCC12` (configuration not stated) returned a melting point of 76 to 81 °C.

`COC(=O)c1ccc(C(=O)NCc2cccc(O)c2)cc1C` yielded a melting point of 100 to 103 °C.

With `Cc1c(C)c2c(c(C)c1Br)C(=O)C(C)(C)O2`, the melting point was in the range of 92 to 93 °C.

Turning to `O=C(O)COc1c(F)cc(SCCNS(=O)(=O)c2ccccc2)cc1F`, the melting point was 91 to 93 °C.

`COc1cc2c(Nc3ccc(Oc4cccnc4)cc3)c(C#N)cnc2cc1OCC1CCN(C)CC1`: the melting point is 182 to 184 °C.

`COc1ccc(Br)c(OC)c1C#N` showed a melting point of 113 to 115 °C.

`COC(=O)c1ccccc1-c1cc(-c2ccccn2)on1`: the melting point lay in the range of 54 to 57 °C.

The compound `OC(CCN1CC=C(c2ccc(Cl)cc2)CC1)c1ccc(F)cc1` (configuration not stated) registered a melting point of 130 to 132 °C.

The compound `COc1ccc2nc(C(=O)NCc3ccc(C(=O)O)cc3)[nH]c(=O)c2c1` yielded a melting point of 287 to 288 °C.

`COc1ccc(C(C)(c2ccc(OC)cc2)c2ccc(OC)cc2)cc1` registered a melting point of 160 °C.

For the compound `Oc1cccc(-c2nc(-c3cccnc3)no2)c1`, the melting point was > 200 °C.

Take `O=C1Nc2ccc(Cl)cc2C1(O)c1ccccc1OCc1ccccc1` (configuration not stated): the melting point came out at 197 °C.

Take `Cc1cc(Br)c2nc(OCC(F)(F)F)ccc2c1`: the melting point fell in the range of 61 to 62 °C.

Compound `Cc1c(C(=O)c2ccc3ccccc3c2)cccc1[N+](=O)[O-]` returned a melting point of 100 to 102 °C.

For `O=c1c2cc(F)c(Cl)nc2n(-c2ccc(C(F)(F)F)cc2)c(=O)n1OCc1ccccc1`, the melting point lay in the range of 245 to 246 °C.

Compound `CCCCN(CCCC)c1ccc(C=Cc2ccc(C=CC3=C(C#N)C(=C(C#N)C#N)OC3(C)C)cc2)cc1` came in with a melting point of 224 to 226 °C.

In turn, `CCC1c2ccccc2-c2cc(-c3cccc(O)c3)ccc2N1S(=O)(=O)c1ccc(O)cc1` (configuration not stated) came in with a melting point of 105 °C.

`Cc1c(C=NO)c2cc(Cl)ccc2n1-c1ccc(O)cc1` showed a melting point of 212 to 213 °C.

`CC(C)(C)c1cc(OCCCCC(=O)O)cc(C(C)(C)C)c1`: the melting point was in the range of 113 to 115 °C.

Take `CCCCc1nc(O)c(CC(=O)OCC)c(=O)n1Cc1ccc(C(=O)OC)cc1`: the melting point was 170 °C.

The compound `Cn1c(-c2ccc(-c3ccccn3)cc2)c(C(=O)O)c(=O)n1-c1ccc(C#N)cc1` yielded a melting point of 155 to 166 °C.

`OC1CSC(Oc2ccccc2-c2ccno2)C(O)C1O` (configuration not stated) showed a melting point of 200 °C.

`CC1(C)CC(=O)c2c(SCc3ccccc3)sc(-c3cc[nH]n3)c2C1` yielded a melting point of 215 to 218 °C.

Take `O=C(C=Cc1cccc(Cl)c1Cl)c1ccc(OC2CCCCO2)cc1` (configuration not stated): the melting point was 116 to 118 °C.

`O=c1[nH]c(=Cc2ccc(OCc3ccccc3)cn2)c(=O)[nH]c1=Cc1cccc(Cl)c1` returned a melting point of 236 to 237 °C.

Turning to `COc1cc2c(cc1OC)C1=C(C#N)SC(C)C(=O)N1CC2` (configuration not stated), the melting point lay in the range of 170 to 171 °C.

Regarding `Cc1ccc(N2C(=O)C(O)=C(C(=O)c3ccc(C(C)C)cc3)C2c2ccc(Cn3ncnn3)cc2)nn1` (configuration not stated), the melting point was 271 °C.

`CCCCc1nc(CC(=O)O)c(-c2ccco2)o1` displayed a melting point of 62 to 63 °C.

For the compound `CC1(C)CC(S(C)(=O)=O)=NO1`, the melting point fell in the range of 82 to 84 °C.

`O=C(Cc1c[nH]c2ccccc12)N1CCN(C(=O)c2cc(C(F)(F)F)cc(C(F)(F)F)c2)[C@H](Cc2ccccc2)C1`: the melting point lay in the range of 201 to 210 °C.

Turning to `NC1=NC(Br)=C(c2ccc(C(F)(F)F)cc2)c2ccccc2C1`, the melting point was in the range of 227 to 229 °C.

Take `CCCCNC(=O)c1cc(=O)c(Oc2ccccc2)co1`: the melting point was 149 to 151 °C.

As to `Cc1cccc(-c2nc3ccc(OCCCCl)cc3n2Cc2ccccc2)c1`, the melting point turned out to be 97 °C.

As for `C=CCCCCCCCCNC(=O)N(C)O`, the melting point fell in the range of 58 to 59 °C.

With `CC(C)C[C@H](NC(=O)[C@H](Cc1c[nH]c2ccccc12)NC(=O)OC(C)(C)C)C(=O)O`, the melting point fell in the range of 109 to 111 °C.

For `Cc1ccccc1-c1cc(F)c2ncc(C(=O)NCc3ccc(Cl)cc3)c(O)c2c1`, the melting point fell in the range of 259 to 265 °C.

As to `CCOC(=O)c1c(-c2ccc(-c3ccccn3)cc2)n(C)n(-c2ccc(C#N)cc2)c1=O`, the melting point was 205 to 211 °C.

For the compound `CCS(=O)(=O)N1CCN(C(=O)OC2CCC3(CO3)C(C3(C)OC3CC=C(C)C)C2OC)CC1` (configuration not stated), the melting point was in the range of 91 to 92 °C.

For the compound `COc1c(OCCC(NC(=O)OCc2ccccc2)C(=O)O)cc2c(c1OC)C1=C(CCC1)C(=NNC1=CCNCN1)CC2` (racemic), the melting point stood at 172 °C.

The compound `Cc1cc(-c2nnc3cc(C(C)(C)C)c(OCc4cn(C)nn4)nn23)no1` gave a melting point of 219 to 221 °C.

For `COC(=O)C1=C(O)c2sc3ccccc3c2S(=O)(=O)N1Cc1ccc(OC)cc1`, the melting point lay within 163 to 164 °C.

Regarding `CCCCN1NC(=O)CC2CCc3cc(N)ccc3C21` (configuration not stated), the melting point lay within 140 to 142 °C.

`O=c1[nH]c2cc([N+](=O)[O-])c(S(=O)(=O)NCCO)cc2[nH]c1=O` returned a melting point of 281 to 289 °C.

Consider `O=C(CC(c1ccccc1)c1ccccc1)N1CCC(N2Cc3ccccc3C2=O)CC1`, for which the melting point was 166 to 169 °C.

For the compound `CC(=O)OCC(=O)N1C(C(N)=O)Cc2c([nH]c3ccccc23)C1c1ccccc1` (configuration not stated), the melting point lay within 195 to 197 °C.

`O=[N+]([O-])c1ccc2c(c1)ncn2-c1cccc(-c2nccs2)c1` registered a melting point of 251 to 260 °C.

As for `O=c1oc2c(c(O)c1C(c1ccccc1)C1CC1)CCCCC2CCC1OCCO1` (configuration not stated), the melting point lay within 68 to 76 °C.

`CC(=O)OCCc1ccc(NC(=O)OCc2ccccc2)cc1` yielded a melting point of 148 to 149 °C.

The compound `COCc1noc(-c2ncn3c2CN(C)C(=O)c2c(Cl)cccc2-3)n1` displayed a melting point of 213 to 215 °C.

The compound `CC(C)(Cc1ccc(OCCCC(=O)O)cc1)NCC(O)c1cc(OCc2ccccc2)cc2c1OCC(=O)N2` (configuration not stated) yielded a melting point of 216 to 218 °C.

In the case of `CCOC(=O)c1cc(C(C)=O)c(=O)[nH]c1C(=O)OCC`, the melting point was in the range of 101 to 110 °C.

In turn, `COc1ccc(N2CCN(c3c(C)c(C)c4c(c3C)C(c3cccc(C)c3)C(C)(C)O4)CC2)cc1` (configuration not stated) displayed a melting point of 159 to 161 °C.

In the case of `CN(C)OC(=O)C(C)(c1ccc(OCc2ccc3ccccc3n2)cc1)C1CCCCC1` (configuration not stated), the melting point lay within 98 to 99 °C.

(Values after a melting point compilation (Tetko et al.; mined from patent text by program, amines drawn as free bases though some values may be those of a salt).)
